Results reported in US20050048508A1, “Trehalose receptor and method for detecting trehalose with the same” (KABUSHIKI KAISHA HAYASHIBARA SEIBUTSU KAGAKU KENKYUJO, priority 2002, published 2005).

Molecular target: T1, T1R3 with G protein α-subunits (α15 and α16/Z chimeric protein) (Mus musculus, UniProt Q925D8, I706N)
T1 construct: expressed in transfected cells; host or cells: 293 cells, RCB 1637 (human embryonic kidney)
T1 sequence (Q925D8 21-858 I706N): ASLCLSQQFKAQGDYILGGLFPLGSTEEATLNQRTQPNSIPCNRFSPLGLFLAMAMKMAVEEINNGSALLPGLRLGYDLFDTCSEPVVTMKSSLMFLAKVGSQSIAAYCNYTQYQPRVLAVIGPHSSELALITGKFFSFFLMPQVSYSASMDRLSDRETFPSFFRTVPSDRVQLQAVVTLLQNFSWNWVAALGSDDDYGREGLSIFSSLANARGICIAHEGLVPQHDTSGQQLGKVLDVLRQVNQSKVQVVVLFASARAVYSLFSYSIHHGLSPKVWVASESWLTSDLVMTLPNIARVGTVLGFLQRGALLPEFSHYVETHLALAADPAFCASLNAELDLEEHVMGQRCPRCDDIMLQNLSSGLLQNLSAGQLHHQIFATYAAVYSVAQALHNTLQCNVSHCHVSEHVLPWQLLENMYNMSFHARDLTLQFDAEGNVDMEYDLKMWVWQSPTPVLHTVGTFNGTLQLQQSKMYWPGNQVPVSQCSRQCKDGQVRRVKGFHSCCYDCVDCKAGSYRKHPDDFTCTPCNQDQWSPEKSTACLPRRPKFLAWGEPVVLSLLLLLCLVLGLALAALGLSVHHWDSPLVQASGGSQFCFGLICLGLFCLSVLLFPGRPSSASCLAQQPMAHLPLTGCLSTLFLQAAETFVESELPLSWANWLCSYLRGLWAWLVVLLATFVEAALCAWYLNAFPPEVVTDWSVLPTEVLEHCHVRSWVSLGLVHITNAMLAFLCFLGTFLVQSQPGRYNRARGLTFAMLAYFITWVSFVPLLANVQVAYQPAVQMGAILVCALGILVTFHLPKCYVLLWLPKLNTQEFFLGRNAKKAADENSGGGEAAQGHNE
Assay: Intracellular calcium ion assay, 293 cells coexpressing G protein α-subunits and T1R3 (trehalose receptor)
Type: cell-based
Protocol: The coexpression vector for the G protein α-subunit α15 and the G protein α16/Z chimeric protein (hereinafter designated as “G protein α-subunits”) obtained in Example 1-3 was gene transferred to 293 cells, RCB 1637, a human embryonic kidney cell line, available from the Riken Bioresource Center, Ibaraki, Japan, by conventional lipofection. The gene transferred cells were suspended in Dulbecco's Modified Eagle's Medium (D-MEM) supplemented with 1 mg/L of “PUROMYCIN”, a trade mane of puromycin commercialized by Edge Biosystems, MD, USA, and 10% (v/v) of fetal calf serum to give a cell density of 2×10^6 cells/ml and cultured in a plastic petri dish for cell culture. After 10 to 14 days of incubation, a puromycin-resistant cell colony was collected and confirmed its production of the G protein α-subunit proteins with an index of their mRNA level by conventional RT-PCR. Thus, a cell line capable of expressing the G protein α-subunit proteins was established. To the cells were gene transferred an expression vector for the sweet taste receptor protein T1R1, T1R2, or T1R3 in Example 2-2; or a coexpression vector for a pair of T1R1 and T1R2, T1R1 and T1R3, or T1R2 and T1R3 by conventional lipofection. The resulting cells were suspended in D-MEM supplemented with 1 mg/L of “PUROMYCIN”, 500 mg/L of “GENETICIN”, and 10% (v/v) of fetal calf serum and cultured in a plastic petri dish for cell culture. After 10 to 14 days of incubation, a cell colony resistant to both of the above drugs was collected and confirmed that the transferred gene had been expressed intracellularly as expected by conventional RT-PCR at a mRNA level. Thus, a cell, which had coexpressed the desired G proteins and sweet taste receptors, was obtained. As a control, a cell, into which an expression vector with no G protein α-subunit protein gene or sweet taste receptor protein gene, was prepared and used.
The captioned reactivity test was conducted according to a conventional intracellular calcium ion assay: 293 Cells prepared in Example 3, capable of coexpressing the G protein α-subunits and the sweet taste receptor(s), were cultured in a plastic petri dish for cell culture until reaching its confluent phase. Thereafter, the cells were detached from the inner surface of the petri dish with a 0.05% (v/v) trypsin solution and a 0.53 mM EDTA solution, suspended in D-MEM supplemented with 10% (v/v) fetal calf serum to give a cell density of 1×10^6 cells/ml, and allowed to intake “FLUO-4. AM”, a reagent for detecting intracellular calcium ion commercialized by Molecular Probes Inc., Ore., USA, by adding to the cell suspension to give a final concentration of 2 μM and incubating the cells at 37 ° C. for 30 to 90 min. The resulting cells were washed with a buffer for detecting calcium ion, which contained 10 mM HEPES (pH 7.4), 130 mM sodium chloride, 5.4 mM potassium chloride, 2 mM calcium chloride, 1 mM magnesium chloride, 5.5 mM D-glucose, 0.1% (v/v) calf serum albumin, and 1 mM sodium pyruvate to remove the reagent remained extracellularly; suspended in a fresh preparation of the same buffer to give a cell density of 2.67 ×10^7 cells/ml; filtered with a membrane with a pore size of 100 μm mesh; and allowed to stand at 25° C. for 30 min. Two milliliters of the resultant cell suspension was injected into a glass cuvette, commercialized by Hitachi, Ltd., Tokyo, Japan, and analyzed on “HITACHI 650-40”, a fluorescence spectrophotometer commercialized by Hitachi, Ltd., Tokyo, Japan. […]

[1] = 293 cells: T1R3 + G protein α-subunits, 0.67 ml of 1 M saccharide solution added to 2 ml cell suspension, FLUO-4 AM
[2] = Table 4: sweet taste substances on cells coexpressing G protein α-subunits and T1R3, measured similarly as in Example 4

Row | Influx of calcium ion [1] | Influx of calcium ion [2] | Influx of calcium ion (293 cells: T1R3 + G protein α-subunits, 0.67 ml of 1 M saccharide solution added to 2 ml cell suspension, FLUO-4 AM, listed as trehalose) | Structure (SMILES)
1 | Negative | Negative |  | OC[C@H]1O[C@@](CO)(O[C@H]2O[C@H](CO)[C@@H](O)[C@H](O)[C@H]2O)[C@@H](O)[C@@H]1O [Sucrose, reference compound]
2 | Positive | Positive | reacted | OC[C@H]1O[C@H](O[C@H]2O[C@H](CO)[C@@H](O)[C@H](O)[C@H]2O)[C@H](O)[C@@H](O)[C@@H]1O [Trehalose]
